Test results: article PMC7093798 (Data in Brief, 2019)

Test system: aminopyrine N-demethylase activity (CYP)
Assay: CYP inhibition: aminopyrine N-demethylase
Format: in vitro ADME, rat
Settings: RLM, 1–100 μM

O=C(/C=C/c1cccnc1)NCCCCC1CCN(C(=O)c2ccccc2)CC1 [FK866]
AND inhibitory activity (in words): mild AND inhibitory activity only at 100 μM concentration
